# Measured values: BindingDB's records for doi:10.1016/j.bmcl.2012.03.090 (Spanish National Cancer Research Centre (Cnio), 2012)
# pIC50: −log10 of the molar value.
# Molecular target: Phosphatidylinositol 3-kinase regulatory subunit alpha/4,5-bisphosphate 3-kinase catalytic subunit alpha isoform (Homo sapiens, UniProt P27986+P42336)
# Experiment: Inhibition of human PI3Kalpha (p110alpha/p85alpha) by ADP accumulation based HTRF assay
# Sequence of Phosphatidylinositol 3-kinase regulatory subunit alpha/4,5-bisphosphate 3-kinase catalytic subunit alpha isoform (P27986 whole entry, canonical isoform): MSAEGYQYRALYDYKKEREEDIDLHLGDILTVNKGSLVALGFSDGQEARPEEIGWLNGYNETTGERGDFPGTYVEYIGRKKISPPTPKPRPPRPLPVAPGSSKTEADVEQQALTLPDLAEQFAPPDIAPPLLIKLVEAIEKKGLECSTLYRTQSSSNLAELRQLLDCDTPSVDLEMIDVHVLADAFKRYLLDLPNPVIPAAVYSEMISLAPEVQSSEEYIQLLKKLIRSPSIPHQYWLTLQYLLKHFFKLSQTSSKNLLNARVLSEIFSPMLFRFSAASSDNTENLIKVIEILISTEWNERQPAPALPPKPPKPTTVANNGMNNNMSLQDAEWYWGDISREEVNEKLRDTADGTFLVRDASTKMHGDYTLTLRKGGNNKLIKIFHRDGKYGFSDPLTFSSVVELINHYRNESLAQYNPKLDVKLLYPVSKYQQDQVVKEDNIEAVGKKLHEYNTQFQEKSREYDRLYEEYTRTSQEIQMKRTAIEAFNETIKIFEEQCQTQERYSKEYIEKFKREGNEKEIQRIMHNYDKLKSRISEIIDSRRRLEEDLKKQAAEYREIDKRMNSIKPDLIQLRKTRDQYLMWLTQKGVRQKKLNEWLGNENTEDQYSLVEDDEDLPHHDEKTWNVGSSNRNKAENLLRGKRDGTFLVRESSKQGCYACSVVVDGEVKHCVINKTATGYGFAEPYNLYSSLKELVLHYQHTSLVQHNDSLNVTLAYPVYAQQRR
# Sequence of Phosphatidylinositol 3-kinase regulatory subunit alpha/4,5-bisphosphate 3-kinase catalytic subunit alpha isoform (P42336 whole entry, canonical isoform): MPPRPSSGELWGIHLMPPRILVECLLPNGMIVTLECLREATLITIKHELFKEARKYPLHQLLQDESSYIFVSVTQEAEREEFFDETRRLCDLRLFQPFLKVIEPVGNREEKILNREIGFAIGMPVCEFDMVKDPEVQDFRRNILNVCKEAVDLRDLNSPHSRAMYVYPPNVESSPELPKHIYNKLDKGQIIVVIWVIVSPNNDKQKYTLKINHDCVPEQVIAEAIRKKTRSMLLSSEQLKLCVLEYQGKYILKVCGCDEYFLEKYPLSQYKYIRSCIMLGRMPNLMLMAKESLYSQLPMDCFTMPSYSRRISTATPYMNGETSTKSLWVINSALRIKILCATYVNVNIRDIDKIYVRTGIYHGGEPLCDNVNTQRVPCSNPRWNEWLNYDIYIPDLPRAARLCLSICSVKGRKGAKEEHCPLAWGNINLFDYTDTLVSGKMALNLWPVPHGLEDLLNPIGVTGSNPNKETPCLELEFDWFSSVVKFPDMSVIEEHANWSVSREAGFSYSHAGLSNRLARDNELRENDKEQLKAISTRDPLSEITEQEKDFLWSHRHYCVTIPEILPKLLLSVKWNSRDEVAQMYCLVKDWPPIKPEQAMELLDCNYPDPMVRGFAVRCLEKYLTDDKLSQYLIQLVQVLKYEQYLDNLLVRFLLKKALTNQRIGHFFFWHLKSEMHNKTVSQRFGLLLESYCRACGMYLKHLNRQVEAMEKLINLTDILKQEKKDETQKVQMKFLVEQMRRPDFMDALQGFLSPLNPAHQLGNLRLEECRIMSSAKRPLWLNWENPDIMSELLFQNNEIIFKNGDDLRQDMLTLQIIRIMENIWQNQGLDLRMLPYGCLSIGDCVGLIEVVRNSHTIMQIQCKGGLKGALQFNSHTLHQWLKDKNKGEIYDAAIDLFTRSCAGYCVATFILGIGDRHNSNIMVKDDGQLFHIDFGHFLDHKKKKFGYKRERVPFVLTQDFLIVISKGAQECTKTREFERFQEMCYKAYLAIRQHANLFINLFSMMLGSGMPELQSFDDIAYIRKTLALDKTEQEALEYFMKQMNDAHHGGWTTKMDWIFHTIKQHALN
row,pIC50,Compound
1,7.49,Cc1nc(N)ncc1-c1cn2cc(CN3CCN(S(C)(=O)=O)CC3)nc2c(N2CCOCC2)n1
2,6.95,CS(=O)(=O)N1CCN(Cc2cn3cc(-c4cnc5[nH]ccc5c4)nc(N4CCOCC4)c3n2)CC1
3,6.68,CC(=O)Nc1ccc(-c2cn3cc(CN4CCN(S(C)(=O)=O)CC4)nc3c(N3CCOCC3)n2)cn1
4,6.77,CS(=O)(=O)N1CCN(Cc2cn3cc(-c4ccc(N)nc4)nc(N4CCOCC4)c3n2)CC1
5,6.33,Cc1ccncc1-c1cn2cc(CN3CCN(S(C)(=O)=O)CC3)nc2c(N2CCOCC2)n1
6,6.96,CS(=O)(=O)N1CCC2(CC1)CN(Cc1cn3cc(-c4cnc(N)nc4)nc(N4CCOCC4)c3n1)C2
7,6.11,Cc1ccc(-c2cn3cc(CN4CCN(S(C)(=O)=O)CC4)nc3c(N3CCOCC3)n2)cn1
8,5.34,COc1ccc(-c2cn3cc(CN4CCN(S(C)(=O)=O)CC4)nc3c(N3CCOCC3)n2)cn1
9,7.68,Cc1ncc(-c2cn3cc(CN4CCN(S(C)(=O)=O)CC4)nc3c(N3CCOCC3)n2)cn1
10,7.47,CN(C)CC(=O)N1CCN(Cc2cn3cc(-c4cnc(N)nc4)nc(N4CCOCC4)c3n2)CC1
